For one assay, the system named is Naegleria fowleri. Kind of assay: Antiparasitic activity against Naegleria fowleri NF69 (ATCC 30215) assessed as parasitic growth inhibition at 10 uM incubated for 48 hrs by CellTiter-Glo based BioTek microplate reader analysis relative to control. In kind it is functional. Details: scale not given: the % may be the effect or the level left.
Another assay concerns the target Acetylcholinesterase (Homo sapiens, UniProt P22303). The assay can be described thus: Competitive inhibition of AChE (unknown origin).
Assay [1] has as its system HeLa. Kind of assay: Antiproliferative activity against human HeLa cells assessed as inhibition of cell proliferation. In kind it is functional, cell-based.
A further assay deals with Escherichia coli. The assay can be described thus: Antibacterial activity against Escherichia coli assessed as diameter of inhibition zone. In kind it is functional.
The next assay deals with Pseudomonas aeruginosa. The assay can be described thus: Antibacterial activity against Pseudomonas aeruginosa assessed as diameter of inhibition zone. The assay is classed as functional.
The test system of the next assay is Bacillus cereus. The assay can be described thus: Antibacterial activity against Bacillus cereus assessed as diameter of inhibition zone. In kind it is functional.
The subject of a further assay is Staphylococcus aureus. The assay can be described thus: Antibacterial activity against Staphylococcus aureus assessed as diameter of inhibition zone. In kind it is functional.
Assay [2] concerns HeLa. The assay can be described thus: Cytotoxicity against human HeLa cells assessed as reduction in cell viability. In kind it is functional, cell-based.
In another assay the test system is A549. The assay can be described thus: Cytotoxicity against human A549 cells assessed as reduction in cell viability. The assay is classed as functional.
Another assay relates to MCF7. Kind of assay: Cytotoxicity against human MCF7 cells assessed as reduction in cell viability. In kind it is functional, cell-based.

Acetylcholinesterase, sequence (P22303 whole entry): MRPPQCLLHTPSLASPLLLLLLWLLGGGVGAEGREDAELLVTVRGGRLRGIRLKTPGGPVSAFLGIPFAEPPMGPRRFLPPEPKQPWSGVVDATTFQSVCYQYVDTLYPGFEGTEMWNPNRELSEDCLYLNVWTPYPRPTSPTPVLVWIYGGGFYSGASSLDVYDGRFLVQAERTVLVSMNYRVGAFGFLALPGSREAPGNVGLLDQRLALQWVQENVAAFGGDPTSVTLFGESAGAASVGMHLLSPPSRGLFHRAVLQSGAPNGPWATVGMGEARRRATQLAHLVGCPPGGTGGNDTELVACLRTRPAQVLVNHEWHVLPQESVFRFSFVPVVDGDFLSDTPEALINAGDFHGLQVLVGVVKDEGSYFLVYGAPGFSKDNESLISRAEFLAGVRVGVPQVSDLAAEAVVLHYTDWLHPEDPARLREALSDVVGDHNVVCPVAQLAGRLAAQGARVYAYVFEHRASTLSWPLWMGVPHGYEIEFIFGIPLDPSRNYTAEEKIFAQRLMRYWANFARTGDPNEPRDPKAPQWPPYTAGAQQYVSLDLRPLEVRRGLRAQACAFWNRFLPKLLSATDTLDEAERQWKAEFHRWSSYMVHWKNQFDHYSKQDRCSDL

Regarding `CN1CCC[C@@H]2c3nc4ccc(Cl)cc4c(=O)n3CC[C@H]21`, the Activity in the assay with Naegleria fowleri came to 98.1%.

Turning to `CN1CCC[C@@H]2c3nc4cc(C(F)(F)F)ccc4c(=O)n3CC[C@H]21`, the Activity with Naegleria fowleri was determined as 96.8%. Turning to `CN1CCC[C@H]2c3nc4ccc(C#N)cc4c(=O)n3CC[C@H]21`, the Activity with Naegleria fowleri was determined as 98.2%. At Acetylcholinesterase, `O=c1c2nc(-c3ccc(C(F)(F)F)cc3)sc2nc2n1CCCC2` had an IC50 of 1670 nM. For the molecule `COc1ccc(/C=C2\CCCn3c2nc2oc(-c4ccc(F)cc4)cc2c3=O)cc1OC`, the IC50 in the assay with HeLa [1] worked out at 8.46 µM. As to `O=C1c2ccccc2NC2=C(/C=N/c3ccccc3O)CCCN12`, the “diameter of the inhibition zone (DIZ)” value with Escherichia coli came to 6 mm; in the assay on Pseudomonas aeruginosa it was 18 mm; in the assay with Bacillus cereus it was 18 mm; with Staphylococcus aureus, 18 mm. Regarding `O=c1c2nc(-c3cc(Cl)cc(Cl)c3)oc2nc2n1CCCC2`, the IC50 in the assay on HeLa [2] turned out to be 3.06 µM; in the assay with MCF7 it was 2290 nM. Besides, in the assay on A549, the Activity stood at 0.75 µM.

What is called IC50 is the concentration that inhibits the measured activity by half.
